Measurements from ChEMBL document CHEMBL5678818, “Discovery of potent SOS1 inhibitors that block RAS activation via disruption of the RAS-SOS1 interaction” (Proc Natl Acad Sci U S A, 2019).

How the values were obtained:
[1] = target: Serine/threonine-protein kinase WNK4 (Homo sapiens) (UniProt Q96J92); test: Inhibition of WNK4 (unknown origin) assessed as residual activity at 1000 nM by KINOMEscan analysis relative to control
[2] = target: T1, Mitogen-activated protein kinase kinase kinase 6 (Homo sapiens) (UniProt O95382); test: Inhibition of ASK2 (unknown origin) assessed as residual activity at 100 nM by KINOMEscan analysis relative to control
T1 sequence (whole entry): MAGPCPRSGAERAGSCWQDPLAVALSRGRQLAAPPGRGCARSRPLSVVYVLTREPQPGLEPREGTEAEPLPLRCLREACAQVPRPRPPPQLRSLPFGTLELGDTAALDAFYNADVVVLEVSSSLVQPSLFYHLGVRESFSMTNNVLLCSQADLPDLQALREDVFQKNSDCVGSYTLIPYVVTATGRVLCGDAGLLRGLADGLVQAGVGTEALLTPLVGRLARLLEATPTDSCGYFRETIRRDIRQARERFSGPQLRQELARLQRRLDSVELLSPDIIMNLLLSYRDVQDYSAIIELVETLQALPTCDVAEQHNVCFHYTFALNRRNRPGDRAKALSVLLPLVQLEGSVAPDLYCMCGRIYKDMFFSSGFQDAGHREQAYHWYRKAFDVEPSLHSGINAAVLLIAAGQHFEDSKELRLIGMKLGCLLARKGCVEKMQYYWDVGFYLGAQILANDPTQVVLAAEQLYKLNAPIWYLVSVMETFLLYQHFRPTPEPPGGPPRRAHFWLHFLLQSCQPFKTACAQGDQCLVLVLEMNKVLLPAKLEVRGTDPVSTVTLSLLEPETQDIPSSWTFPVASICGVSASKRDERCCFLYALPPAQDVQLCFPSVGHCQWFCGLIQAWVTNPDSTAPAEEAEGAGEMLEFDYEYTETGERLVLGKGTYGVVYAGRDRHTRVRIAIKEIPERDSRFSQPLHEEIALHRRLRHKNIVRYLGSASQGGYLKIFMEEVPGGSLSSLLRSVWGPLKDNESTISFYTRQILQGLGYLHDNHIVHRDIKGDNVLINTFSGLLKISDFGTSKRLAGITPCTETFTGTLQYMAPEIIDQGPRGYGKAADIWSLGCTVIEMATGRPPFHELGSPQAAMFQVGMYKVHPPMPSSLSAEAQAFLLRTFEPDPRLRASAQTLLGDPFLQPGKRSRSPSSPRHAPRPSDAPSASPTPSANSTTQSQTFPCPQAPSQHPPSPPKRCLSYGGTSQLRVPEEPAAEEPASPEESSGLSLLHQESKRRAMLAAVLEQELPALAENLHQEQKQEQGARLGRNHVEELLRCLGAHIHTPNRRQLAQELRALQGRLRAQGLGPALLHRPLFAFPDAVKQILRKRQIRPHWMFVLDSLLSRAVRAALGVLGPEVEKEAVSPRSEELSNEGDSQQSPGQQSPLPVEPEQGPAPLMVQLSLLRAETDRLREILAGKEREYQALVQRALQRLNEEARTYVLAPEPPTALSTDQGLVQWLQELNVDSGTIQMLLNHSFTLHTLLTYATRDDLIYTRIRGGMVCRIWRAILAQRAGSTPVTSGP

[3] = target: T2, Discoidin domain-containing receptor 2 (Homo sapiens) (UniProt Q16832); test: Inhibition of DDR2 (unknown origin) assessed as residual activity at 100 nM by KINOMEscan analysis relative to control
T2 sequence (whole entry): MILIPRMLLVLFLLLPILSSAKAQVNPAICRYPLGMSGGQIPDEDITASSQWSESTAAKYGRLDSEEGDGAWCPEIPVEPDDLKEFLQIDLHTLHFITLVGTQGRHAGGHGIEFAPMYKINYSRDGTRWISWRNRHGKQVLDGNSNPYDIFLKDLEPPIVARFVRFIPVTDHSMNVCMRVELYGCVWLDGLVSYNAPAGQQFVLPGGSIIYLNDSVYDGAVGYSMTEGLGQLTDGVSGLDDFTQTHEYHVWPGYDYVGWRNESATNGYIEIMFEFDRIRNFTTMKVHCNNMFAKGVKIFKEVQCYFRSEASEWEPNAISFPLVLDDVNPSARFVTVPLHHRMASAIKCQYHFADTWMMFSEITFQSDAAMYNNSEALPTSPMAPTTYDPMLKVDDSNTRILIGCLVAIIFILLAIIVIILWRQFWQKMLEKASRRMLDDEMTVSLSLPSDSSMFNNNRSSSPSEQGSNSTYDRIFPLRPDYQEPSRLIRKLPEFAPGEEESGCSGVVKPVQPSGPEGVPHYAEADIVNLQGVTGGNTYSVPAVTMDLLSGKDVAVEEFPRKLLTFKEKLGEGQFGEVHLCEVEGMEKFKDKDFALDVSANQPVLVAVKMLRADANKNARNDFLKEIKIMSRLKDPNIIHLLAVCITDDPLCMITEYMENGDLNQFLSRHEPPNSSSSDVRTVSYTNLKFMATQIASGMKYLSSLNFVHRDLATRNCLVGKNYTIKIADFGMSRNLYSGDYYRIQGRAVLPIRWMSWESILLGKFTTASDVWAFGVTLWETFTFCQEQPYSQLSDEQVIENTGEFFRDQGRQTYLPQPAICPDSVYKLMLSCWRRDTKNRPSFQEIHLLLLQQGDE

[4] = target: Serine/threonine-protein kinase/endoribonuclease IRE1 (Homo sapiens) (UniProt O75460); test: Inhibition of ERN1 (unknown origin) assessed as residual activity at 100 nM by KINOMEscan analysis relative to control
[5] = target: Tyrosine-protein kinase Fer (Homo sapiens) (UniProt P16591); test: Inhibition of FER (unknown origin) assessed as residual activity at 100 nM by KINOMEscan analysis relative to control
Tyrosine-protein kinase Fer (Homo sapiens), sequence (P16591 whole entry, looked up): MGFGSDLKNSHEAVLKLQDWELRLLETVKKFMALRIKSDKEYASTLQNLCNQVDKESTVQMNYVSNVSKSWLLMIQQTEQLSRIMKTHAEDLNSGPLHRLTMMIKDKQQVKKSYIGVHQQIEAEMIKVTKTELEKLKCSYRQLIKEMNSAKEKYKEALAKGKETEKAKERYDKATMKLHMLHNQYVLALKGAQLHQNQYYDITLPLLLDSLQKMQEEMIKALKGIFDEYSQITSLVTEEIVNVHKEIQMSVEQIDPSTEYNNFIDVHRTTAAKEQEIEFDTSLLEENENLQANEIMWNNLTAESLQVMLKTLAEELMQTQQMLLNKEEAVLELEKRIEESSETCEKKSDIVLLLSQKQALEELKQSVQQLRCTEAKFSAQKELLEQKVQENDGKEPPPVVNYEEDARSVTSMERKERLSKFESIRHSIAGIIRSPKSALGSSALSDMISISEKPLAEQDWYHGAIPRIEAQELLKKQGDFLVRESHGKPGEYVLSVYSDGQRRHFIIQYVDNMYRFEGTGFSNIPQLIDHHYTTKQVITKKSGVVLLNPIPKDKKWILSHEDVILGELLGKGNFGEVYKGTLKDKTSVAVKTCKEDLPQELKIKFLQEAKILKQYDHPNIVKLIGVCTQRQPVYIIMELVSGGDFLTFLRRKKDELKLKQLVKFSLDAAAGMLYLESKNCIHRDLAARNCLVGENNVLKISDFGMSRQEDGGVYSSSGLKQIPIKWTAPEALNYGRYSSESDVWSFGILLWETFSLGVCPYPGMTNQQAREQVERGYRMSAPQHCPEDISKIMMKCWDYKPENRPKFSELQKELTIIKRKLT

[6] = tested on: Receptor-type tyrosine-protein kinase FLT3 (Homo sapiens), P36888 [N841I]; test: Inhibition of FLT3 N841I mutant (unknown origin) assessed as residual activity at 100 nM by KINOMEscan analysis relative to control
Homo sapiens = species: Homo sapiens; test: Inhibition of JNK3 (unknown origin) assessed as residual activity at 100 nM by KINOMEscan analysis relative to control
[7] = target: Mitogen-activated protein kinase kinase kinase 9 (Homo sapiens) (UniProt P80192); test: Inhibition of MLK1 (unknown origin) assessed as residual activity at 100 nM by KINOMEscan analysis relative to control
Mitogen-activated protein kinase kinase kinase 9 (Homo sapiens), sequence (P80192 whole entry, looked up): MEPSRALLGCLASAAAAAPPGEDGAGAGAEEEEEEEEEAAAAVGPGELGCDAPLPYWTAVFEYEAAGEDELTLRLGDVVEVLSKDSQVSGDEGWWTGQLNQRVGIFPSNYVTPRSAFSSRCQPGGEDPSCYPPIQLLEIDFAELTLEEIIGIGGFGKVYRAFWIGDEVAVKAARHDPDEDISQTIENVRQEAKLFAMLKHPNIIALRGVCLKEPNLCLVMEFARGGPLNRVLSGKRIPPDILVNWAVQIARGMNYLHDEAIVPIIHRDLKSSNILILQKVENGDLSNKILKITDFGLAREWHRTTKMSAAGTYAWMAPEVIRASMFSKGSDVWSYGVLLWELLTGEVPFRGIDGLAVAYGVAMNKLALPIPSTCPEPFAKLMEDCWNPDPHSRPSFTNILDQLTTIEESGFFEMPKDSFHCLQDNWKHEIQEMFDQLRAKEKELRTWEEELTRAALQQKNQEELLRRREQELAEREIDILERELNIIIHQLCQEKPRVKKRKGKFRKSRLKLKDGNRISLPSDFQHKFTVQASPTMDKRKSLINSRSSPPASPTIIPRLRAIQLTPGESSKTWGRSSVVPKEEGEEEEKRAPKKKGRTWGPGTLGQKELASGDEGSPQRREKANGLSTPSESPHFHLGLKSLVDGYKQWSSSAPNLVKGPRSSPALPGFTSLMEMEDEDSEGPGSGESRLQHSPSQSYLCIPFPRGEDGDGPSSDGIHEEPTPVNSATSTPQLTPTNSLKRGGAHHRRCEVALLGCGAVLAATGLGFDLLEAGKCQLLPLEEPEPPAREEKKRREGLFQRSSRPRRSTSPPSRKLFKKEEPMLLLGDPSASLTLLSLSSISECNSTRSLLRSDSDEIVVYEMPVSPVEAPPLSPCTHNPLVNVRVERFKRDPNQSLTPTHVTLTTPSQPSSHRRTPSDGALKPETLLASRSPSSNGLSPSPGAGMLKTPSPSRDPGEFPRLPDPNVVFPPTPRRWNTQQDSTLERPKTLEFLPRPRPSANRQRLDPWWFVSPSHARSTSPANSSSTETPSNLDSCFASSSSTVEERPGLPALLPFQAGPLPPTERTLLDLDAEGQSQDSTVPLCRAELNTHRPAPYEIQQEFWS

[8] = target: Serine/threonine-protein kinase mTOR (Homo sapiens) (UniProt P42345); test: Inhibition of MTOR (unknown origin) assessed as residual activity at 100 nM by KINOMEscan analysis relative to control
[9] = tested on: Phosphatidylinositol 4,5-bisphosphate 3-kinase catalytic subunit alpha isoform (Homo sapiens), P42336 [E545K]; test: Inhibition of PIK3CA E545K mutant (unknown origin) assessed as residual activity at 100 nM by KINOMEscan analysis relative to control
Phosphatidylinositol 4,5-bisphosphate 3-kinase catalytic subunit alpha isoform (Homo sapiens), P42336 [E545K], sequence (P42336 whole entry E545K, canonical isoform): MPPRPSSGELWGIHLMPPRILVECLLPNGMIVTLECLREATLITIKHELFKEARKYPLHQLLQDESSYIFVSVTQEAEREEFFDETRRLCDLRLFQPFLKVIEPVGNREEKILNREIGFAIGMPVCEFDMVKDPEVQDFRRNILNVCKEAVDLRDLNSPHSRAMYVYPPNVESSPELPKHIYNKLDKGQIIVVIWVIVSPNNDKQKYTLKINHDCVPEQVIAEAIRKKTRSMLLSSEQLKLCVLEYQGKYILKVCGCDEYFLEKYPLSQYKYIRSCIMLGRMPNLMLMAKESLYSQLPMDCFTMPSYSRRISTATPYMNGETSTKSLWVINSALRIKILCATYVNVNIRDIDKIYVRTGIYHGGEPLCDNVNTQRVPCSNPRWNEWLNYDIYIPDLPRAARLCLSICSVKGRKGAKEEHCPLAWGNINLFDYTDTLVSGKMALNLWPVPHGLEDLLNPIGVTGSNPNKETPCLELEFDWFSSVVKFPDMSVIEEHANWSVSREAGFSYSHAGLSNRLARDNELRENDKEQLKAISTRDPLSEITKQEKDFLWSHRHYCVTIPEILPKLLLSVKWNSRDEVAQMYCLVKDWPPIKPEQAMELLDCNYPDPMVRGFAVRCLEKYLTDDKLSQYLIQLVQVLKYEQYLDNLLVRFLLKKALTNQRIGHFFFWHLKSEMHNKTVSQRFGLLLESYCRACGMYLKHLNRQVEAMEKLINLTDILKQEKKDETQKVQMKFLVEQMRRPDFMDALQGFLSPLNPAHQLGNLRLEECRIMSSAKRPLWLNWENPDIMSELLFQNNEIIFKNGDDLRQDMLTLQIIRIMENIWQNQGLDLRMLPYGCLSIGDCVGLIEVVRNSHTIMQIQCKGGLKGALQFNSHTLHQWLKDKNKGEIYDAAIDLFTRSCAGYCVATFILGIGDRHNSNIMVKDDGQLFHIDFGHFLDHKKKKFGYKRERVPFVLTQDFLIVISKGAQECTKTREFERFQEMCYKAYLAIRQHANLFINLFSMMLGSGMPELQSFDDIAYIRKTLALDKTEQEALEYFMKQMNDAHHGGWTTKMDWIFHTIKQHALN

[10] = tested on: Phosphatidylinositol 4,5-bisphosphate 3-kinase catalytic subunit alpha isoform (Homo sapiens), P42336 [H1047Y]; test: Inhibition of PIK3CA H1047Y mutant (unknown origin) assessed as residual activity at 100 nM by KINOMEscan analysis relative to control
Phosphatidylinositol 4,5-bisphosphate 3-kinase catalytic subunit alpha isoform (Homo sapiens), P42336 [H1047Y], sequence (P42336 whole entry H1047Y, canonical isoform): as the sequence (P42336 whole entry E545K, canonical isoform) above, with K545E, H1047Y counted along it

Serine/threonine-protein kinase WNK4 (Homo sapiens), sequence (Q96J92 whole entry): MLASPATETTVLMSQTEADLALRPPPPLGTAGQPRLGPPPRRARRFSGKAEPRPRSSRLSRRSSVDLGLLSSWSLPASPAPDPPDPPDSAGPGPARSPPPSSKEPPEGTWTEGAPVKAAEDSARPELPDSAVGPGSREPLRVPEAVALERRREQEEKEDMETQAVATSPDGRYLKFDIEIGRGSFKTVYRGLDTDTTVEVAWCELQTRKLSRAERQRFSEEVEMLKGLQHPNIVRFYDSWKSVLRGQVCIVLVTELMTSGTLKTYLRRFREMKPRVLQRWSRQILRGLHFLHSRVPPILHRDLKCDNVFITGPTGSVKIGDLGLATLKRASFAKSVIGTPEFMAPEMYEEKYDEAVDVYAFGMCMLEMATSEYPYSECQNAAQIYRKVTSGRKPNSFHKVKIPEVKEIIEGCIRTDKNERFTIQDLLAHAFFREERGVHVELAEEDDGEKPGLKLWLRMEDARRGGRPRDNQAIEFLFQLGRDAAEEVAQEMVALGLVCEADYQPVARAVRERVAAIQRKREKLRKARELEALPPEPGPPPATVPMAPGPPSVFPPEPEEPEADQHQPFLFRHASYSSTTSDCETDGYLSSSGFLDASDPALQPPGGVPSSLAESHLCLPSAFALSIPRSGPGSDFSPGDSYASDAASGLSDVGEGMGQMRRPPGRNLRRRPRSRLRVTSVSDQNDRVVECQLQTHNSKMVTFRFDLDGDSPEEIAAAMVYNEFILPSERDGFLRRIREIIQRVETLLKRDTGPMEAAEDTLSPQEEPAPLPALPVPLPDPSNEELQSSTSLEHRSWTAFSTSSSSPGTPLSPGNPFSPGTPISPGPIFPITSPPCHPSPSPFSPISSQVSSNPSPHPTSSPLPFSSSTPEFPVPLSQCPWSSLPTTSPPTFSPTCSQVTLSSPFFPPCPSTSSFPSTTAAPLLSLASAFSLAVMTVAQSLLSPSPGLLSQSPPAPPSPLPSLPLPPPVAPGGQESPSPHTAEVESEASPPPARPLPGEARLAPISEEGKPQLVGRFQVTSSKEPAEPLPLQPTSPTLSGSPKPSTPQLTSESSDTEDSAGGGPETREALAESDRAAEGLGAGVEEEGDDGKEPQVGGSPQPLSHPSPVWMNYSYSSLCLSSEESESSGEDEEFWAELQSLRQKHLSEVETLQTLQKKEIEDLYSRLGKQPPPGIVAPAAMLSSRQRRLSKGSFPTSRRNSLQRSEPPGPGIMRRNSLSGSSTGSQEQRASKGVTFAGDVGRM

Compound | Activity [1] [%] | Activity [2] [%] | Activity [3] [%] | Activity [4] [%] | Activity [5] [%] | Activity [6] [%] | Activity (Homo sapiens) [%] | Activity [7] [%] | Activity [8] [%] | Activity [9] [%] | Activity [10] [%]
COc1cc2nc(C)nc(N[C@H](C)c3cccc(-c4cn[nH]c4)c3)c2cc1OC | 100 |  |  |  |  |  |  |  |  |  | 
COc1cc2ncnc(N[C@H](C)c3cccc4ccccc34)c2cc1OC |  | 71 | 67 | 96 | 100 | 100 | 77 | 100 | 82 | 75 | 73
